Measurements taken from patent US9149034B2, “Agrochemical formulations comprising co-polymers based on diisocyanates” (BASF SE, priority 2006, dated 2015).

Experiments:
[1] = system: Alteria, ALTESO P6 (Bayer); test: Test with pathogenes: tomatoe plants in Hoagland solution with boscalid or boscalid/polymer, infested with fungus; format: in vivo; details: for Infestation Rating: Table 3 experiment, untreated = 100%; for Rating (infestation): Table 4 experiment
Excerpt: To test the polymers with the actual pathogenes, tomatoe plants were directly grown in hoagland solution. Hoagland solution consists of the following ingredients 0.25 v % of 1M KNO3 solution in water, 0.1 v % of 1M MgSO4 solution in water, 0.05 v % of 1M KH2PO4 solution in water, 0.25 v % 1M Ca(NO3)2) solution in water, 0.05 v % of a trace solution consisting of 2.86 g/l H3BO3, 1.81 g/l MnCl2*4H2O, 0.22 g/l ZnSO4*7H2O, 0.08 g/l CuSO4*5H2O, 0.016 g/l MoO3 in water, 0.075 v % Sequestrene 138 Fe consisting of 30 g/l sodium ferric ethylenediamine di-(o-hydroxyphenylacetate) in water, 99.225 v % water sterilized and pH adjusted to 6-6.5 with NaOH.
After 16 days the plants were transfered to containers with 240 ml boscalid or boscalid/polymer (the ratio boscalid/polymer is 1:1 per weight) solutions (1.3, 0.43, 0.14 and 0.05 ppm) in Hoagland solution containing 0.8 vol % acetone. 6 days after the ai application the plants were infested with fungus (Alteria, ALTESO P6 (Bayer)). After 5 additional days the infestation was rated (column “Infestation Rating”) and plants that had not been treated with ai were used as reference for 100% infestation.
Two separate experiments were performed. In one test, polymers A and B were tested (see table 3), in the other experiment, polymers C and F were tested (see table 4).

[2] = Leaf uptake of radioactively marked boscalid applied dropwise to leaves of wheat plants; details: in vivo, 168 h
Description: To test the leaf uptake with polymers water/DMF solutions with radioactively marked boscalid (1 μl cold active solution (10000 ppm solution in DMF), 10 μl hot active solution (0.1 ppm in DMF, ˜2000000 counts/μl), 9 μl polymer solution (1000 ppm solution in water) and 80 μl DMF) were applied dropwise to the leaves of a wheat plants (10 drops per leap. After 48 and 168 hours respectively. The leaves were cut off after the respective time and the excess active on the leaf surface eliminated by stripping the leaf with a cellulose acetate film. The leaves were then dissolved with Soluene 350 to determine the absolute amount of active ingredient that was taken up into the plant. As reference the active was applied in water/DMF solution without polymer.

[3] = Root uptake test with radioactively marked boscalid, drench of wheat plants in vermiculite; details: in vivo, 120 h
Description: To test the root systemicity of the ai, radioactively marked boscalid (prepared in analogy to EP 0545099 based on ^14C marked pyridin) was used. For the tests wheat plants in vermiculite were drenched with boscalid/polymer solutions in water/acetone mixtures. As reference boscalid solutions in water/acetone mixtures without polymers were used [25 μl cold active solution (10000 ppm stock solution in acetone), 20 μl hot active solution (0.1 ppm in acetone, 1 μl corresponds to ˜22000 Bcq), 25 μl acetone and 25 μl polymer solution (10000 ppm stock solution in water) were mixed and refilled with water to 10 ml. After 48 and 120 hours leafs were cut from the plant and dissolved in Soluene 350 (60-80% toluene, 20-40% dodecyl(dimethyl)(tetradecyl)ammonium hydroxide, 2.5-10% methanol). Afterwards the radioactivity in the plant material was measured. High radioactivity in the plant material corresponds to high active ingredient uptake.

[4] = 0.05 ppm active (or polymer/active 1:1)
[5] = 0.14 ppm active (or polymer/active 1:1)
[6] = 0.43 ppm active (or polymer/active 1:1)

In the case of O=C(Nc1ccccc1-c1ccc(Cl)cc1)c1cccnc1Cl [Reference without polymer, boscalid], the “Infestation Rating” value [1, 4] was 77%, the “Infestation Rating” value [1, 5] was 60% and the “Infestation Rating” value [1, 6] was 13%. For the same molecule, the “Infestation Rating” value ([1]; 1.3 ppm active (or polymer/active 1:1), rated 5 days after infestation) was 1%, the “Rating (infestation)” value [1, 4] was 53% and the “Rating (infestation)” value [1, 5] was 47%. The “Rating (infestation)” value [1, 6] was 17%, the “Rating (infestation)” value ([1]; 1.3 ppm active (or polymer/active 1:1)) was 0% and the “Uptake [% applied]” value [2] was 1.3 % applied. For the same molecule, the “Uptake (radioactivity in leaf material, active ingredient uptake)” value [3] was 219 Bcq.
